Source: ChEMBL document CHEMBL2417521, “Class A G-protein-coupled receptor (GPCR) dimers and bivalent ligands” (J Med Chem, 2013)

Columns and labels:
[1] = target: Dopamine receptor D2L/neurotensin receptor NTS1 (Homo sapiens) (UniProt P14416+P30989); assay: Ratio of Ki for D2L/NTS1 (unknown origin) expressed in HEK293 cell membrane in presence of neurotensin to Ki for D2L/NTS1 (unknown origin) expressed in HEK293 cell membrane in absence of neurotensin; type: cell-based
HEK293 = assay: Selectivity ratio of EC50 for mu/kappa opioid receptor in HEK293 cells to EC50 for mu opioid receptor in HEK293 cells; type: cell-based; details: Homo sapiens

Compound	Ratio Ki [1]	Ratio EC50 (HEK293)
CCCN(CCCCNC(=O)c1cnn2ccccc12)C1Cc2ccccc2C1	34	
O=C(N[C@@H]1CC[C@@]2(O)[C@H]3Cc4ccc(O)c5c4[C@@]2(CCN3CC2CC2)[C@H]1O5)c1ccc2ccccc2c1		1000
